Measured values as given in patent publication US11096865B2, “Preservative removal from eye drops” (TearClear Corp., priority 2019, dated 2021).

Test: 30 day drop test, API retention after dropper tip packed with OxPO
Format: physicochemical
Details: for API concentration in drops: tip packed with OxHDPE A-C 395, 125-250 μm, acid washed
Procedure: To 60.0 g of ultrapure water was added 0.090 g hydroxyethyl cellulose (Natrosol 250H) and the solution was stirred overnight to dissolve. Subsequently, 0.176 g sodium citrate dihydrate and 0.960 g mannitol were added and the mixture was stirred until completely dissolved. 1.37 g Dorzolamide Hydrochloride, 0.420 g Timolol Maleate and 0.045 g of a 10% aqueous solution of BAK were added and incorporated. The pH was adjusted to 5.65 with 0.01N NaOH solution. The final nominal concentrations are reported below.
An empty dropper tip equipped with a 25 μm filter at the tip exit was packed with approximately […] of OxPO and the backing filter was attached to retain the OxPO packing in place. The weight of the OxPO packing was recorded. The packed tip was then inserted into the neck of an 8 ml dropper bottle containing 5 ml of the API/BAK test solution.
5 ml of the formulation described above containing nominally 5.0 mg/ml Timolol, 20.0 mg/ml Dorzolamide and 75 μg/ml BAK was loaded into six eyedropper bottles packed with OxHDPE (A-C 395, 125-250 μm, acid washed) as described above. Drops were obtained from each bottle twice a day (AM and PM 8 hours apart) and analyzed by HPLC for API and BAK.

SMILES: CCN[C@H]1C[C@H](C)S(=O)(=O)c2sc(S(N)(=O)=O)cc21 [Dorzolamide]
- API concentration in drops (Day 1A): 20.0 mg/mL
- API concentration in drops (Day 1P): 20.1 mg/mL
- API concentration in drops (Day 2A): 19.2 mg/mL
- API concentration in drops (Day 2P): 19.4 mg/mL
- API concentration in drops (Day 3A): 19.5 mg/mL
- API concentration in drops (Day 3P): 19.6 mg/mL
- API concentration in drops (Day 4A): 19.3 mg/mL
- API concentration in drops (Day 4P): 19.7 mg/mL
- API concentration in drops (Day 5A): 19.7 mg/mL
- API concentration in drops (Day 5P): 19.8 mg/mL
- API concentration in drops (Day 6A): 19.8 mg/mL
- API concentration in drops (Day 6P): 20.2 mg/mL
- API concentration in drops (Day 7A): 20.3 mg/mL
- API concentration in drops (Day 7P): 20.3 mg/mL
- API concentration in drops (Day 8A): 20.1 mg/mL
- API concentration in drops (Day 8P): 20.2 mg/mL
- API concentration in drops (Day 9A): 19.8 mg/mL
- API concentration in drops (Day 9P): 19.5 mg/mL
- API concentration in drops (Day 10A): 19.8 mg/mL
- API concentration in drops (Day 10P): 20.1 mg/mL
- API concentration in drops (Day 11A): 19.9 mg/mL
- API concentration in drops (Day 11P): 19.9 mg/mL
- API concentration in drops (Day 12A): 19.8 mg/mL
- API concentration in drops (Day 12P): 19.9 mg/mL
- API concentration in drops (Day 13A): 19.9 mg/mL
- API concentration in drops (Day 13P): 19.9 mg/mL
- API concentration in drops (Day 14A): 19.7 mg/mL
- API concentration in drops (Day 14P): 20.0 mg/mL
- API concentration in drops (Day 15A): 19.8 mg/mL
- API concentration in drops (Day 15P): 19.9 mg/mL
- API concentration in drops (Day 16A): 19.5 mg/mL
- API concentration in drops (Day 16P): 19.8 mg/mL
- API concentration in drops (Day 17A): 19.4 mg/mL
- API concentration in drops (Day 17P): 19.4 mg/mL
- API concentration in drops (Day 18A): 19.7 mg/mL
- API concentration in drops (Day 18P): 19.6 mg/mL
- API concentration in drops (Day 19A): 19.2 mg/mL
- API concentration in drops (Day 19P): 19.5 mg/mL
- API concentration in drops (Day 20A): 19.6 mg/mL
- API concentration in drops (Day 20P): 19.7 mg/mL
- API concentration in drops (Day 21A): 19.6 mg/mL
- API concentration in drops (Day 21P): 19.7 mg/mL
- API concentration in drops (Day 22A): 20.0 mg/mL
- API concentration in drops (Day 22P): 19.5 mg/mL
- API concentration in drops (Day 23A): 19.8 mg/mL
- API concentration in drops (Day 23P): 19.8 mg/mL
- API concentration in drops (Day 24A): 19.8 mg/mL
- API concentration in drops (Day 24P): 19.8 mg/mL
- API concentration in drops (Day 25A): 19.6 mg/mL
- API concentration in drops (Day 25P): 19.7 mg/mL
- API concentration in drops (Day 26A): 20.2 mg/mL
- API concentration in drops (Day 26P): 20.1 mg/mL
- API concentration in drops (Day 27A): 20.1 mg/mL
- API concentration in drops (Day 27P): 20.1 mg/mL
- API concentration in drops (Day 28A): 20.1 mg/mL
- API concentration in drops (Day 28P): 19.9 mg/mL
- API concentration in drops (Day 29A): 19.6 mg/mL
- API concentration in drops (Day 29P): 19.6 mg/mL
- API concentration in drops (Day 30A): 20.1 mg/mL
- API concentration in drops (Day 30P): 20.1 mg/mL
- API concentration (Initial formulation): 21.0 (mg/ml)
